From ChEMBL document CHEMBL1150723, “Traditional medicinal plants of Thailand, VIII. Isoflavonoids of Dalbergia candenatensis” (1987) come the findings set out here.

Converted amounts (≈) assume the structure as drawn. The source made the active and inactive calls. No cut-off for these calls is given here.

Common to all, as to assay type: functional
The subject of one test is Candida albicans. Briefly: Antifungal activity against Candida albicans ATCC 10259 after 3 days by microdilution assay. A general note: In broth dilution the organism is exposed to a series of concentrations in liquid medium.
Another test relates to Penicillium expansum. Briefly: Antifungal activity against Penicillium expansum ATCC 7861 after 3 days by microdilution assay.
A further test concerns Aspergillus niger. Kind of test: Antifungal activity against Aspergillus niger ATCC 6275 after 3 days by microdilution assay.
Test [1] relates to Trichophyton mentagrophytes. Briefly: Antifungal activity against Trichophyton mentagrophytes ATCC 9533 after 3 days by microdilution assay.
A further test has as its system Staphylococcus aureus. Kind of test: Antibacterial activity against Staphylococcus aureus ATCC 25923 after 16 hrs by microdilution assay. The settings on record: ATCC 25923, 16 h.
For another test, the system named is Bacillus subtilis. Kind of test: Antibacterial activity against Bacillus subtilis ATCC 6633 after 16 hrs by microdilution assay. To be noted: ATCC 6633, 16 h.
The subject of the next test is Escherichia coli. Briefly: Antibacterial activity against Escherichia coli ATCC 25922 after 16 hrs by microdilution assay. To be noted: ATCC 25922, 16 h.
Another test relates to P388. Kind of test: Cytotoxicity against mouse P388 cells.

For orientation: MIC means the lowest concentration found to suppress growth. Low values mean greater potency, high ones weaker potency. On to NYSTATIN, for which the MIC in the test with Candida albicans came to 1.5 µg/mL; in the test with Penicillium expansum, 6 µg/mL; against Aspergillus niger it was 6 µg/mL; in test [1] it was 3 µg/mL.
Consider `COc1ccc(-c2coc3cc(O)ccc3c2=O)cc1` [FORMONONETIN], for which the MIC against Staphylococcus aureus is over 100 µg/mL; against Bacillus subtilis, over 100 µg/mL; against Escherichia coli it was 100 µg/mL (≈ 373 µM); with Candida albicans (ATCC 10259, 72 h), over 100 µg/mL; with Penicillium expansum (ATCC 7861, 72 h), 50 µg/mL (≈ 186 µM); in the test on Aspergillus niger (ATCC 6275, 72 h), 100 µg/mL (≈ 373 µM). For the same molecule, the MIC in test [1] (ATCC 9533, 72 h) is over 100 µg/mL.
In the case of `COC1=CC(=O)C(c2coc3cc(O)cc(O)c3c2=O)=CC1=O`, the MIC is over 100 µg/mL in the test with Staphylococcus aureus; 100 µg/mL (≈ 318 µM) against Bacillus subtilis; 50 µg/mL (≈ 159 µM) against Escherichia coli; over 100 µg/mL with Candida albicans (ATCC 10259, 72 h); over 100 µg/mL against Penicillium expansum (ATCC 7861, 72 h); over 100 µg/mL against Aspergillus niger (ATCC 6275, 72 h). Moreover, the MIC in test [1] (ATCC 9533, 72 h) was found to be 100 µg/mL (≈ 318 µM). Besides, in the test on P388, the ED50 entry is “inactive”.
For the molecule `COc1ccc([C@@H]2COc3cc(O)ccc3C2)c(O)c1`, the MIC is over 100 µg/mL against Staphylococcus aureus; 50 µg/mL (≈ 184 µM) with Bacillus subtilis; 50 µg/mL (≈ 184 µM) against Escherichia coli; over 100 µg/mL against Candida albicans (ATCC 10259, 72 h); over 100 µg/mL against Penicillium expansum (ATCC 7861, 72 h); over 100 µg/mL against Aspergillus niger (ATCC 6275, 72 h). This molecule yielded an MIC in test [1] (ATCC 9533, 72 h) of 25 µg/mL (≈ 91.8 µM).
For the molecule `CN(C)[C@@H]1C(O)=C(C(N)=O)C(=O)[C@@]2(O)C(O)=C3C(=O)c4c(O)cccc4[C@@](C)(O)[C@H]3C[C@@H]12` [TETRACYCLINE], the results for the minimal inhibitory concentration (MIC) with Staphylococcus aureus, against Bacillus subtilis and against Escherichia coli were 0.6 µg/mL (≈ 1.35 µM), 2.5 µg/mL (≈ 5.63 µM) and 1.2 µg/mL (≈ 2.7 µM), respectively.
Regarding `COc1ccc(C2COc3cc(O)ccc3C2)c(OC)c1O` (racemic) [MUCRONULATOL(+/-)], the minimal inhibitory concentration (MIC) in the test on Staphylococcus aureus was over 100 µg/mL; with Bacillus subtilis it was over 100 µg/mL; in the test on Escherichia coli, 50 µg/mL (≈ 165 µM); in the test on Candida albicans (ATCC 10259, 72 h), over 100 µg/mL; with Penicillium expansum (ATCC 7861, 72 h), over 100 µg/mL; against Aspergillus niger (ATCC 6275, 72 h), over 100 µg/mL. In addition, the MIC in test [1] (ATCC 9533, 72 h) is 25 µg/mL (≈ 82.7 µM).
With `COC1=CC(=O)C([C@@H]2COc3cc(O)ccc3C2)=CC1=O`, the MIC against Staphylococcus aureus was 6 µg/mL (≈ 21 µM); with Bacillus subtilis it was 3 µg/mL (≈ 10.5 µM); in the test with Escherichia coli it was 6 µg/mL (≈ 21 µM); in the test on Candida albicans (ATCC 10259, 72 h) it was 50 µg/mL (≈ 175 µM); with Penicillium expansum (ATCC 7861, 72 h) it was over 100 µg/mL; against Aspergillus niger (ATCC 6275, 72 h) it was 100 µg/mL (≈ 349 µM). This molecule yielded an MIC in test [1] (ATCC 9533, 72 h) of 25 µg/mL (≈ 87.3 µM). The EC50 in the test with P388 (read-out: ED50 (the source's name)) was 0.5 µg/mL (≈ 1.75 µM).
